Measured values taken from US4533665A, “[[Bis(aryl)methylene]-1-piperidinyl]alkyl-pyrimidinones” (Janssen Pharmaceutica, priority 1984, dated 1985).
Where a name gives a salt, the structure may show the parent alone.

Target: T1, S2-receptor (Rattus norvegicus, UniProt P14842)
T1 construct: Caudal arteries from fasted male rats; from tissue; host or cells: rat caudal artery, helical strips
Assay: antagonistic activity on the effect of serotonin on the caudal artery of the rat (caudal artery test)
Details: rat caudal artery strips; serotonin 40 ng/ml; 5 minutes after adding the drug; read-out: ED50 (minimal concentration which reduces the amplitude of the serotonin-induced contraction to at least 50% of its normal value) (converted)
Experimental: ANTAGONISTIC ACTIVITY ON THE EFFECT OF SEROTONIN ON THE CAUDAL ARTERY OF THE RAT
Caudal arteries from fasted male rats (210-235 g) were used in the test. […] Submaximal contractions of the arterial strips were produced by adding single doses of serotonin (40 ng/ml) to the organ bath for 2 minutes with each time an interval of 10 minutes. The amplitude of the contraction was measured before and 5 minutes after adding the drug. After washing out, the agonist was added again three times in order to see whether the contraction was restored and normalized. […] In this connection the ED50 -values are the minimal concentrations of the concerned drugs which reduce the amplitude of the contraction to at least 50% of its normal value.

T1 sequence (P14842 whole entry): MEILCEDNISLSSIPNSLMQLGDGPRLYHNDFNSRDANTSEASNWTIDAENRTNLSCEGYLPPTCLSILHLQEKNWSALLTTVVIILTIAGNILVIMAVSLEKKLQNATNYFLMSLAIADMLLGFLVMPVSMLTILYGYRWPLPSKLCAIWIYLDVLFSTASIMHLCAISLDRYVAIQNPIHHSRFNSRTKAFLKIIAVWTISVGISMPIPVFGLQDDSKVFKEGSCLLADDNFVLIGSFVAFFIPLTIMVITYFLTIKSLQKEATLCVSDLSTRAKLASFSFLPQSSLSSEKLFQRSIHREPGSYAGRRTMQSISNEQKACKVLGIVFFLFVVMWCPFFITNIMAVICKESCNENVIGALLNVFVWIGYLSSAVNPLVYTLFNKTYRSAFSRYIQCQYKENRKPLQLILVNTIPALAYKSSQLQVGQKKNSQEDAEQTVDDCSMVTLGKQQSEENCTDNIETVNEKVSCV

COc1ccc(C(=C2CCN(CCc3c(C)nc4n(c3=O)CCCS4)CC2)c2ccc(F)cc2)cc1 [Compound 145, 7-[2-[4-[(4-fluorophenyl)(4-methoxyphenyl)methylene]-1-piperidinyl]ethyl]-3,4-dihydro-8-methyl-2H,6H-pyrimido[2,1-b][1,3]thiazin-6-one dihydrochloride]
IC50: 2.25 pM

Cc1nc2ccccn2c(=O)c1CCN1CCC(=C(c2ccc(F)cc2)c2ccc(F)cc2)C(O)C1 (stereo not shown) [Compound 61]
IC50: 4.51 pM

Cc1nc2ccccn2c(=O)c1CCN1CCC(=C(c2ccc(F)cc2)c2ccc(Cl)cc2)CC1 [Compound 13]
IC50: 2.56 pM

Cc1nc2sccn2c(=O)c1CCN1CCC(=C(c2ccc(F)cc2)c2cccc(F)c2)CC1 [Compound 25]
IC50: 0.293 pM

Cc1nc2ccc(N)cn2c(=O)c1CCN1CCC(=C(c2ccc(F)cc2)c2ccc(F)cc2)CC1 [Compound 141, 7-amino-3-[2-[4-[bis(4-fluorophenyl)methylene]-1-piperidinyl]ethyl]-2-methyl-4H-pyrido[1,2-a]-pyrimidin-4-one]
IC50: 1.46 pM

Cc1nc2scc(C)n2c(=O)c1CCN1CCC(=C(c2ccc(F)cc2)c2cccc(F)c2)CC1 [Compound 27]
IC50: 0.651 pM

Cc1cc(C)n2c(=O)c(CCN3CCC(=C(c4ccc(F)cc4)c4ccc(F)cc4)CC3)c(C)nc2c1 [Compound 55]
IC50: 2.6 pM

Cc1nc2n(c(=O)c1CCN1CCC(=C(c3ccccc3)c3ccc(F)cc3)CC1)CCCS2 [Compound 115]
IC50: 2.73 pM

Cc1ccc(C(=C2CCN(CCc3c(C)nc4n(c3=O)CCS4)CC2)c2ccccc2)cc1 [Compound 130]
IC50: 0.175 pM

Cc1nc2scc(C)n2c(=O)c1CCN1CCC(=C(c2ccccc2)c2cccc(C(F)(F)F)c2)CC1 [Compound 85]
IC50: < 4.77 pM

Cc1nc2ccccn2c(=O)c1CCN1CCC(=C(c2ccccc2)c2ccc(O)cc2)CC1 [Compound 78]
IC50: 2.88 pM

Cc1nc2sccn2c(=O)c1CCN1CCC(=C(c2ccc(F)cc2)c2ccc(F)cc2)C(O)C1 (stereo not shown) [Compound 60]
IC50: 2.63 pM

Cc1nc2scc(C)n2c(=O)c1CCN1CCC(=C(c2ccccc2)c2ccc(F)cc2)CC1 [Compound 117]
IC50: < 1.33 pM

Cc1nc2ccccn2c(=O)c1CCN1CCC(=C(c2ccccc2)c2ccccc2)CC1 [Compound 18]
IC50: < 1.45 pM

Cc1nc2n(c(=O)c1CCN1CCC(=C(c3ccc(F)cc3)c3ccc(F)cc3)CC1)CCCC2 [Compound 3]
IC50: 1.18 pM

Cc1nc2n(c(=O)c1CCN1CCC(=C(c3ccc(O)cc3)c3ccc(F)cc3)CC1)CCCC2 [Compound 39]
IC50: 1.33 pM

Cc1ccc(C(=C2CCN(CCc3c(C)nc4ccccn4c3=O)CC2)c2ccc(C)cc2)cc1 [Compound 43]
IC50: 1.53 pM

Cc1cccc(C(=C2CCN(CCc3c(C)nc4n(c3=O)CCCC4)CC2)c2ccc(F)cc2)c1 [Compound 138, 3-[2-[4-[(4-fluorophenyl)(3-methylphenyl)methylene]-1-piperidinyl]ethyl]-6,7,8,9-tetrahydro-2-methyl-4H-pyrido[1,2-a]pyrimidin-4-one]
IC50: 2.65 pM

Cc1nc2sccn2c(=O)c1CCN1CCC(=C(c2ccccc2)c2cccc(C(F)(F)F)c2)CC1 [Compound 89]
IC50: < 4.91 pM

Cc1nc2scc(C)n2c(=O)c1CCN1CCC(=C(c2ccc(F)cc2)c2cccc(Cl)c2)CC1 [Compound 7]
IC50: 1.24 pM

COc1ccc(C(=C2CCN(CCc3c(C)nc4ccccn4c3=O)CC2)c2ccc(F)cc2)cc1 [Compound 143, 3-[2-[4-[(4-fluorophenyl)(4-methoxyphenyl)methylene]-1-piperidinyl]ethyl]-2-methyl-4H-pyrido[1,2-a]pyrimidin-4-one dihydrochloride.monohydrate]
IC50: 1.3 pM

Cc1ccc(C(=C2CCN(CCc3c(C)nc4n(c3=O)CCCS4)CC2)c2ccccc2)cc1 [Compound 128]
IC50: 0.678 pM

Cc1nc2n(c(=O)c1CCN1CCC(=C(c3ccc(F)cc3)c3ccc(F)cc3)CC1)CCCS2 [Compound 114]
IC50: 1.13 pM

Cc1cccc(C(=C2CCN(CCc3c(C)nc4scc(C)n4c3=O)CC2)c2ccccc2)c1 [Compound 68]
IC50: 0.681 pM

Cc1ccc(C(=C2CCN(CCc3c(C)nc4scc(C)n4c3=O)CC2)c2ccc(F)cc2)cc1 [Compound 38]
IC50: 0.656 pM

Cc1nc2n(c(=O)c1CCN1CCC(=C(c3ccc(Cl)cc3)c3ccc(Cl)cc3)CC1)CCS2 [Compound 110, 6-[2-[4-[bis(4-chlorophenyl)methylene]-1-piperidinyl]ethyl]-2,3-dihydro-7-methyl-5H-thiazolo[3,2-a]pyrimidin-5-one]
IC50: 2.54 pM

Cc1nc2ccccn2c(=O)c1CCN1CCC(=C(c2ccc(F)cc2)c2cccnc2)CC1 [Compound 57]
IC50: 2.86 pM

Cc1nc2n(c(=O)c1CCN1CCC(=C(c3ccccc3)c3cccc(C(F)(F)F)c3)CC1)CCS2 [Compound 90]
IC50: 1.39 pM

Cc1nc2n(c(=O)c1CCN1CCC(=C(c3ccccc3)c3ccccc3)CC1)CCS2 [Compound 107, 6-[2-[4-(diphenylmethylene)-1-piperidinyl]ethyl]-2,3-dihydro-7-methyl-5H-thiazolo[3,2-a]pyrimidin-5-one dihydrochloride]
IC50: 1.08 pM

Cc1nc2scc(C)n2c(=O)c1CCN1CCC(=C(c2ccc(F)cc2)c2cccc(C(F)(F)F)c2)CC1 [Compound 119]
IC50: 2.31 pM

Cc1cccc(C(=C2CCN(CCc3c(C)nc4n(c3=O)CCCS4)CC2)c2ccc(F)cc2)c1 [Compound 123]
IC50: 0.654 pM

Cc1ccc(C(=C2CCN(CCc3c(C)nc4sccn4c3=O)CC2)c2ccc(C)cc2)cc1 [Compound 26]
IC50: 1.19 pM

Cc1ccc(C(=C2CCN(CCc3c(C)nc4n(c3=O)CCCC4)CC2)c2ccc(F)cc2)cc1 [Compound 46]
IC50: 2.76 pM

COC1CN(CCc2c(C)nc3ccccn3c2=O)CCC1=C(c1ccc(F)cc1)c1ccc(F)cc1 (stereo not shown) [Compound 62]
IC50: 5.58 pM

Cc1cccc(C(=C2CCN(CCc3c(C)nc4n(c3=O)CCCS4)CC2)c2ccc(F)cc2)c1 [Compound 121]
IC50: 2.65 pM

Cc1nc2n(c(=O)c1CCN1CCC(=C(c3ccc(F)cc3)c3cccc(F)c3)CC1)CCCC2 [Compound 30]
IC50: 1.18 pM

Cc1nc2ccccn2c(=O)c1CCN1CCC(=C(c2ccc(F)cc2)c2ccc(F)cc2)CC1 [Compound 58]
IC50: 1.34 pM

Cc1ccc2nc(C)c(CCN3CCC(=C(c4ccc(F)cc4)c4ccc(F)cc4)CC3)c(=O)n2c1 [Compound 50]
IC50: 1.46 pM

Cc1cccc(C(=C2CCN(CCc3c(C)nc4sccn4c3=O)CC2)c2ccccc2)c1 [Compound 69]
IC50: 0.702 pM

Cc1nc2sccn2c(=O)c1CCN1CCC(=C(c2ccc(Cl)cc2)c2ccc(Cl)cc2)CC1 [Compound 48]
IC50: 4.31 pM

Cc1nc2n(c(=O)c1CCN1CCC(=C(c3ccc(F)cc3)c3ccc(Br)cc3)CC1)CCCS2 [Compound 33]
IC50: 5.05 pM

Cc1cccc(C(=C2CCN(CCc3c(C)nc4ccccn4c3=O)CC2)c2ccc(F)cc2)c1 [Compound 15]
IC50: 1.35 pM

Cc1nc2n(c(=O)c1CCN1CCC(=C(c3ccc(O)cc3)c3ccc(F)cc3)CC1)CCCS2 [Compound 37]
IC50: 2.64 pM

Cc1nc2sccn2c(=O)c1CCN1CCC(=C(c2ccc(F)cc2)c2cccc(C(F)(F)F)c2)CC1 [Compound 21]
IC50: 1.19 pM

Cc1nc2n(c(=O)c1CCN1CCC(=C(c3ccc(Cl)cc3)c3ccc(Cl)cc3)CC1)CCCC2 [Compound 52]
IC50: 1.4 pM

Cc1nc2ccccn2c(=O)c1CCN1CCC(=C(c2ccc(F)cc2)c2cccc(Cl)c2)CC1 [Compound 16]
IC50: 1.29 pM
